This note sets out measurements from patent publication US8501713B2, “Drug combinations for the treatment of duchenne muscular dystrophy” (Summit Corporation PLC, priority 2007, dated 2013).

In the assay the test system is Utrophin A promoter linked to a luciferase reporter gene. The experiment in a line: Luciferase reporter assay (murine H2K cells). Format: cell-based. The settings on record: luciferase level relative to control, H2K/mdx/Utro A reporter cells, compound 10 μM final concentration; for activity at 10 µM: Mus musculus, H2K mdx, read-out: Activity. In a few lines: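 Immortalized mdx mouse H2K myoblasts stably carrying a ~5 kb utrophin A promoter–luciferase construct, kept at 33° C, 10% CO2. After 24 hrs plating, compound added at 10 μM final for 48 hrs; luciferase light output read after in-situ lysis.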

Each structure is given as a SMILES string.

Take `Nc1ccc2sc(-c3cccc(Cl)c3Cl)nc2c1` [Example 307, 2-(2,3-dichlorophenyl)benzo[d]thiazol-5-amine]: the activity at 10 µM was 301 to 400%.

Turning to `CC(c1ccccc1)c1nc2cc(N)ccc2o1` (centres unmarked) [Example 308, 2-(1-phenylethyl)benzo[d]oxazol-5-amine], the activity at 10 µM is less than 200%.

Take `CC(C)C(=O)Nc1ccc2oc(C(C)c3ccccc3)nc2c1` (centres unmarked) [Example 309, N-(2-(1-phenylethyl)benzo[d]oxazol-5-yl)isobutyramide]: the activity at 10 µM was less than 200%.

On to `Clc1ccc(-c2nc3cc4c(cc3o2)OCO4)cc1` [Example 310, 2-(4-chlorophenyl)-5,6-methylenedioxybenzoxazole], for which the activity at 10 µM was in the range of 301 to 400%.

In the case of `CC(C)C(=O)Nc1ccc2oc(-c3cc(Cl)ccc3Cl)nc2c1` [Example 311, N-(2-(2,5-dichlorophenyl)benzo[d]oxazol-5-yl)isobutyramide], the activity at 10 µM was less than 200%.

`O=S(=O)(O)c1ccc2oc(-c3ccc(Cl)cc3)nc2c1` [Example 312, 2-(4-chlorophenyl)benzo[d]oxazole-5-sulfonic acid]: the activity at 10 µM is less than 200%.

`O=C(O)c1cccc(-c2ccc3oc(-c4ccc(Cl)cc4)nc3c2)c1` [Example 313, 3-(2-(4-chlorophenyl)benzo[d]oxazol-5-yl)benzoic acidd]: the Activity entry is reported as “+ (Up to 200% relative to control)”.

For `Clc1ccc(-c2nc3cc(-c4ccc(Cl)nc4)ccc3o2)cc1` [Example 314, 2-(4-chlorophenyl)-5-(6-chloropyridin-3-yl)benzo[d]oxazole], the activity at 10 µM is less than 200%.

For `Fc1ccc(-c2ccc3oc(-c4ccc(Cl)cc4)nc3c2)cn1` [Example 315, 2-(4-chlorophenyl)-5-(6-fluoropyridin-3-yl)benzo[d]oxazole], the activity at 10 µM was less than 200%.

With `Clc1ccc(-c2nc3cc(-c4ccc(N5CCOCC5)nc4)ccc3o2)cc1` [Example 316, 2-(4-chlorophenyl)-5-(6-morpholinopyridin-3-yl)benzo[d]oxazole], the activity at 10 µM is less than 200%.

On to `CC(=O)Nc1ccc(-c2nc3cc(Cl)ccc3o2)cc1` [Example 317, N-(4-(5-chlorobenzo[d]oxazol-2-yl)phenyl)acetamide], for which the activity at 10 µM was in the range of 301 to 400%.

As for `CC(C)C(=O)Nc1ccc(-c2nc3cc(Cl)ccc3o2)cc1` [Example 318, N-(4-(5-chlorobenzo[d]oxazol-2-yl)phenyl)isobutyramide], the activity at 10 µM lay within 201 to 300%.

For the molecule `O=C(Nc1ccc(-c2nc3cc(Cl)ccc3o2)cc1)c1cccs1` [Example 319, N-(4-(5-chlorobenzo[d]oxazol-2-yl)phenyl)thiophene-2-carboxamide], the activity at 10 µM is less than 200%.

Regarding `CC(C)C(=O)N(C)c1ccc2oc(-c3ccc(Cl)cc3)nc2c1` [Example 320, N-(2-(4-chlorophenyl)benzo[d]oxazol-5-yl)-N-methylisobutyramide], the activity at 10 µM fell in the range of 201 to 300%.

Consider `CC(C)(C)c1ccc2oc(-c3ccc(Cl)cc3)nc2c1` [Example 321, 5-tert-butyl-2-(4-chlorophenyl)benzo[d]oxazole], for which the activity at 10 µM was more than 401%.

On to `CC(C)CN(C)c1ccc2oc(-c3ccc(Cl)cc3)nc2c1` [Example 322, 2-(4-chlorophenyl)-N-isobutyl-N-methylbenzo[d]oxazol-5-amine], for which the activity at 10 µM was less than 200%.

As for `COCCC(=O)Nc1ccc2oc(-c3ccc(Cl)cc3)nc2c1` [Example 323, N-(2-(4-chlorophenyl)benzo[d]oxazol-5-yl)-3-methoxypropanamide], the activity at 10 µM was more than 401%.

`O=[N+]([O-])c1ccc2nc(-c3ccc(Cl)c(Cl)c3)oc2c1` [Example 324, 2-(3,4-dichlorophenyl)-6-nitrobenzo[d]oxazole]: the activity at 10 µM was 201 to 300%.

With `NS(=O)(=O)c1ccc2oc(-c3ccc(Cl)cc3)nc2c1` [Example 325, 2-(4-chlorophenyl)benzo[d]oxazole-5-sulfonamide], the activity at 10 µM is more than 401%.

`O=[N+]([O-])c1cc2oc(-c3ccc(Cl)cc3)nc2cc1Cl` [Example 326, 5-chloro-2-(4-chlorophenyl)-6-nitrobenzo[d]oxazole]: the activity at 10 µM fell in the range of 301 to 400%.

Consider `COc1cccc(-c2ccc3oc(-c4ccc(Cl)cc4)nc3c2)n1` [Example 327, 2-(4-chlorophenyl)-5-(6-methoxypyridin-2-yl)benzo[d]oxazole], for which the activity at 10 µM was less than 200%.

Regarding `Nc1cccc(-c2ccc3oc(-c4ccc(Cl)cc4)nc3c2)c1` [Example 328, 3-(2-(4-chlorophenyl)benzo[d]oxazol-5-yl)aniline], the activity at 10 µM is more than 401%.

Consider `Nc1ccc(-c2ccc3oc(-c4ccc(Cl)cc4)nc3c2)cc1` [Example 329, 4-(2-(4-chlorophenyl)benzo[d]oxazol-5-yl)aniline], for which the activity at 10 µM is more than 401%.

On to `Clc1ccc2oc(-c3ccncc3)nc2c1` [Example 330, 5-chloro-2-(pyridin-4-yl)benzo[d]oxazole], for which the activity at 10 µM was less than 200%.

Take `Clc1ccc2nc(-c3ccncc3)oc2c1` [Example 331, 6-chloro-2-(pyridin-4-yl)benzo[d]oxazole]: the activity at 10 µM is less than 200%.

For `CC(=O)Nc1ccc(-c2nc3ccc(Cl)cc3o2)cc1` [Example 332, N-(4-(6-chlorobenzo[d]oxazol-2-yl)phenyl)acetamide], the activity at 10 µM lay in the range of 301 to 400%.

Regarding `CC(C)C(=O)Nc1ccc(-c2nc3ccc(Cl)cc3o2)cc1` [Example 333, N-(4-(6-chlorobenzo[d]oxazol-2-yl)phenyl)isobutyramide], the activity at 10 µM lay within 201 to 300%.

Take `O=C(Nc1ccc(-c2nc3ccc(Cl)cc3o2)cc1)c1cccs1` [Example 334, N-(4-(6-chlorobenzo[d]oxazol-2-yl)phenyl)thiophene-2-carboxamide]: the activity at 10 µM was less than 200%.

In the case of `CC(C)CN(CC(C)C)c1ccc2oc(-c3ccc(Cl)cc3)nc2c1` [Example 335, 2-(4-chlorophenyl)-N,N-diisobutylbenzo[d]oxazol-5-amine], the activity at 10 µM is less than 200%.

Consider `Nc1ccc(-c2nc3cc(Br)ccc3o2)cc1` [Example 336, 4-(5-bromobenzo[d]oxazol-2-yl)aniline], for which the activity at 10 µM is more than 401%.

`Nc1ccc(C(=O)Nc2ccc(-c3nc4cc(Br)ccc4o3)cc2)cc1` [Example 337, 4-amino-N-(4-(5-bromobenzo[d]oxazol-2-yl)phenyl)benzamide]: the activity at 10 µM was less than 200%.

For `Nc1ccc(-c2ccc3oc(-c4ccc(Cl)cc4)nc3c2)cn1` [Example 338, 5-(2-(4-chlorophenyl)benzo[d]oxazol-5-yl)pyridin-2-amine], the activity at 10 µM was more than 401%.

Take `Clc1ccc(-c2cc3cc(-c4ccccc4)ccc3[nH]2)cc1` [Example 339, 2-(4-chlorophenyl)-5-phenyl-1H-indole]: the activity at 10 µM was less than 200%.

Take `CC(C)C(=O)Nc1ccc2oc(-c3ccc(F)cc3Cl)nc2c1` [Example 340, N-(2-(2-chloro-4-fluorophenyl)benzo[d]oxazol-5-yl)isobutyramide]: the activity at 10 µM is more than 401%.

Take `CC(C)C(=O)Nc1ccc2oc(-c3c(F)cccc3Cl)nc2c1` [Example 341, N-(2-(2-chloro-6-fluorophenyl)benzo[d]oxazol-5-yl)isobutyramide]: the activity at 10 µM was less than 200%.

Consider `CC(C)C(=O)Nc1ccc2oc(-c3cccc(Cl)c3F)nc2c1` [Example 342, N-(2-(3-chloro-2-fluorophenyl)benzo[d]oxazol-5-yl)isobutyramide], for which the activity at 10 µM is more than 401%.

In the case of `CC(C)C(=O)Nc1ccc2oc(-c3ccc(Cl)cc3F)nc2c1` [Example 343, N-(2-(4-chloro-2-fluorophenyl)benzo[d]oxazol-5-yl)isobutyramide], the activity at 10 µM was more than 401%.

Turning to `CC(C)C(=O)Nc1ccc2oc(-c3cc(F)ccc3Cl)nc2c1` [Example 344, N-(2-(2-chloro-5-fluorophenyl)benzo[d]oxazol-5-yl)isobutyramide], the activity at 10 µM is less than 200%.

In the case of `O=C(CC(F)(F)F)Nc1ccc2oc(-c3ccc(Cl)cc3)nc2c1` [Example 345, N-(2-(4-chlorophenyl)benzo[d]oxazol-5-yl)-3,3,3-trifluoropropanamide], the activity at 10 µM is 301 to 400%.

For `O=C(Nc1ccc2oc(-c3ccc(Cl)cc3)nc2c1)C1CCCC1` [Example 346, N-(2-(4-chlorophenyl)benzo[d]oxazol-5-yl)cyclopentanecarboxamide], the activity at 10 µM is less than 200%.

As to `CC(C)C(=O)Nc1cc2oc(-c3ccc(Cl)cc3)nc2cc1Cl` [Example 347, N-(5-chloro-2-(4-chlorophenyl)benzo[d]oxazol-6-yl)isobutyramide], the activity at 10 µM lay in the range of 201 to 300%.

Take `O=[N+]([O-])c1ccc2oc(-c3ccc(OC(F)(F)F)cc3)nc2c1` [Example 348, 5-nitro-2-(4-(trifluoromethoxy)phenyl)benzo[d]oxazole]: the activity at 10 µM was in the range of 201 to 300%.

As for `CC(C)C(=O)Nc1ccc2oc(C3CCOCC3)nc2c1` [Example 349, N-(2-(tetrahydro-2H-pyran-4-yl)benzo[d]oxazol-5-yl)isobutyramide], the activity at 10 µM was less than 200%.

As for `Nc1ccc2oc(-c3ccc(OC(F)(F)F)cc3)nc2c1` [Example 350, 2-(4-(trifluoromethoxy)phenyl)benzo[d]oxazol-5-amine], the activity at 10 µM lay in the range of 201 to 300%.

Regarding `O=C(Nc1ccc2oc(-c3ccc(Cl)c(Cl)c3)nc2c1)C1CC1` [Example 351, N-(2-(3,4-dichlorophenyl)benzo[d]oxazol-5-yl)cyclopropanecarboxamide], the activity at 10 µM was more than 401%.

Take `O=C(CC(F)(F)F)Nc1ccc2oc(-c3ccc(Cl)c(Cl)c3)nc2c1` [Example 352, N-(2-(3,4-dichlorophenyl)benzo[d]oxazol-5-yl)-3,3,3-trifluoropropanamide]: the activity at 10 µM was more than 401%.

Regarding `O=C(Nc1ccc2nc(-c3ccc(Cl)cc3)oc2c1)C1CC1` [Example 353, N-(2-(4-chlorophenyl)benzo[d]oxazol-6-yl)cyclopropanecarboxamide], the activity at 10 µM was 201 to 300%.
